Measurements taken from publication PMC8201443 (Journal of Medicinal Chemistry, 2021).
“Also recorded” adds a separate entry of the source. Read-outs that look alike come from different tables or passages of the source. Values belong to the molecule of their own block, whether it stands above or below them.

Columns and labels:
[1] = more potent than lenalidomide; cited from earlier work
[2] = molecular target: IKZF1(ZF2)-CRBN/DDB1 (Homo sapiens, UniProt Q96SW2); assay: AlphaScreen assay, IKZF1; assay type: biochemical; settings: dose response up to highest concentration
[3] = test system: MV4-11, MHH-CALL-4, HD-MB03, MB002 and MB004 cells; assay type: cell-based, human
[4] = Liver microsomes stability assay, mouse; assay type: in vitro ADME; settings: CD-1, mouse, pH 7.4
[5] = test system: MV4-11 cells; assay: Lenalidomide competition assay, MV4-11 viability; assay type: cell-based, human; settings: MV4-11, co-treatment with 10 μM lenalidomide, 3 days
[6] = test system: MV4-11 cells stably expressing GSPT1(G575N)-FLAG; assay type: cell-based, human
[7] = molecular target: T1, IKZF1 (Homo sapiens, UniProt Q13422); settings: for IKZF1 protein levels in GSPT1(G575N) mutant cell line (in words): MV4-11 GSPT1(G575N)-FLAG cells, 24 h; for IKZF1 degradation after 4 h (in words): MV4-11 cells, any concentration tested
[8] = test system: caspase 3/7; assay: Caspase-Glo 3/7 activity assay in MV4-11 cells; assay type: cell-based, human; settings: MV4-11, 10 and 100 nM; timepoints 4, 8 and 24 h
[9] = test system: MV4-11 cells; assay: TMT quantitative proteomics in MV4-11 cells; assay type: cell-based, human; settings: 1 μM, 4 h
[10] = test system: MV4-11 cells; assay: Cell viability; assay type: cell-based, human; settings: for activity in cells (in words): cellular assays of Table 2; for EC50: Homo sapiens
[11] = test system: CRBN knockout MV4-11 cells; assay: Cell viability, wild-type vs CRBN knockout MV4-11 cells; assay type: cell-based, human; settings: 3 days
[12] = Liver microsomes stability assay, human; assay type: in vitro ADME; settings: pooled liver microsomes, pH 7.4
[13] = molecular target: T1, IKZF1; assay: Immunoblot, IKZF1 degradation in MHH-CALL-4 cells; assay type: cell-based; settings: any concentration tested
[14] = molecular target: GSPT1(G575N) (Homo sapiens, UniProt P15170, G437N); assay type: cell-based
[15] = test system: MB002 cells; assay: Cell viability; assay type: cell-based; settings: Homo sapiens, MB002, 72 h, read-out: EC50 (nM) MB002
[16] = molecular target: GSPT1 (Homo sapiens, UniProt P15170+Q96SW2); assay: Immunoblot, GSPT1 degradation in MV4-11 cells; assay type: cell-based; settings: MV4-11, 4 h
[17] = molecular target: hGSPT1-HiBit (Homo sapiens, UniProt P15170+Q96SW2); assay: hGSPT1 HiBiT assay in HEK293 cells; assay type: cell-based; settings: SAR discussion of Table 2
Sequence of hGSPT1-HiBit (P15170 1-637 isoform P15170-3): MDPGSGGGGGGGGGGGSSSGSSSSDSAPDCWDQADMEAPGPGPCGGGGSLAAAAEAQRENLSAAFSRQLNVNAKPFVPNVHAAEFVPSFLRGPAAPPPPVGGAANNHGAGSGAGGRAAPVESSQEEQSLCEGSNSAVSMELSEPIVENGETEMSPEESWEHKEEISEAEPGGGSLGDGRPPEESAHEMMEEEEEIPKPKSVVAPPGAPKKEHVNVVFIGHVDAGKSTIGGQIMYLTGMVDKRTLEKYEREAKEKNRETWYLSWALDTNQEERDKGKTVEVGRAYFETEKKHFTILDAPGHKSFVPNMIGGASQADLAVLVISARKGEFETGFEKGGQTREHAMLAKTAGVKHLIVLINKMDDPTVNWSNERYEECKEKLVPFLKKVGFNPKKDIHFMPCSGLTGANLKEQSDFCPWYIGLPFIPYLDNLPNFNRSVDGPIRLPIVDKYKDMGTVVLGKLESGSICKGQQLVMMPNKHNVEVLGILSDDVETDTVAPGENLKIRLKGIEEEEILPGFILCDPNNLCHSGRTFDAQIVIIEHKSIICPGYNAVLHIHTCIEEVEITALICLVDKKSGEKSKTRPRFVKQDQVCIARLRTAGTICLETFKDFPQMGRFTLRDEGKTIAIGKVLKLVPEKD
Sequence of hGSPT1-HiBit (Q96SW2 whole entry): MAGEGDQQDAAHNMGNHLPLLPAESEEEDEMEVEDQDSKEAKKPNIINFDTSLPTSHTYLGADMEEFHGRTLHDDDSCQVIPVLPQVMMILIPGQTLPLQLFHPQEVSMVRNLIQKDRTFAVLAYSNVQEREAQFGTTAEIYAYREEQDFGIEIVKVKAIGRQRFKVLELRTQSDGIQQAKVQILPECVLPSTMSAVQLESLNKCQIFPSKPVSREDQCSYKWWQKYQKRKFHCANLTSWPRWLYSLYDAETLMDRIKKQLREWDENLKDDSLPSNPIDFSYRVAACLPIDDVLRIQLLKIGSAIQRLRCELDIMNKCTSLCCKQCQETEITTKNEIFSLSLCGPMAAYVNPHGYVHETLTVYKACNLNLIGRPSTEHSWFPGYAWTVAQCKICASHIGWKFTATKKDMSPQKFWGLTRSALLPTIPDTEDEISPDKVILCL
Sequence of hGSPT1-HiBit (Q16531 whole entry partner): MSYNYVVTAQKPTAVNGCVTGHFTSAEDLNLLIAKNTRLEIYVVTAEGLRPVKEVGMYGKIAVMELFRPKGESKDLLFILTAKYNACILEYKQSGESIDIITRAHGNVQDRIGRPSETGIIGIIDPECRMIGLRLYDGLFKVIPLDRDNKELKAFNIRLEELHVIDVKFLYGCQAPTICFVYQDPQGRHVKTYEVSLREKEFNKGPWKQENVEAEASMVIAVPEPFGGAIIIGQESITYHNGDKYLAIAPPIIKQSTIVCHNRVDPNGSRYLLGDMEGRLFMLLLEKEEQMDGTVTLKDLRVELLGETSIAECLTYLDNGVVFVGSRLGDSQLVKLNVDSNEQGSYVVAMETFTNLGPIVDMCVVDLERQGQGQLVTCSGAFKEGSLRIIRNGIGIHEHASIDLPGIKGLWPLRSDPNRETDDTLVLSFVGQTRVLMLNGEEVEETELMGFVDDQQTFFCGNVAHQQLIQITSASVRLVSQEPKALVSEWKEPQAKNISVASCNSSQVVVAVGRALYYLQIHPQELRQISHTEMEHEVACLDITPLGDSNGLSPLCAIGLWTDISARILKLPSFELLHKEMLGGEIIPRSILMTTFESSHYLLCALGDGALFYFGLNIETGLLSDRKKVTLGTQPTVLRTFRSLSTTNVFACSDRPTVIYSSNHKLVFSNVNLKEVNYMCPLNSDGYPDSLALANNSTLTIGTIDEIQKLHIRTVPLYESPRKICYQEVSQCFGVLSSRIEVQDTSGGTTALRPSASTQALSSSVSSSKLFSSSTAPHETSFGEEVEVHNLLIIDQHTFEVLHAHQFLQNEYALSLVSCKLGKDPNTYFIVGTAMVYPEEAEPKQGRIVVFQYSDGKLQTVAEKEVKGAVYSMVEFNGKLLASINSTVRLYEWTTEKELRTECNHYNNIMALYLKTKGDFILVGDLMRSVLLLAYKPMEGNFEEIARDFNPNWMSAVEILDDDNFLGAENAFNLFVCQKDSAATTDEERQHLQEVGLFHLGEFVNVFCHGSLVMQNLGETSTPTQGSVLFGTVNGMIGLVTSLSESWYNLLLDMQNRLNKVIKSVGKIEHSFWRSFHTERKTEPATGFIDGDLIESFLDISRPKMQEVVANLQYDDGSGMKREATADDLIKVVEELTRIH

Sequence of IKZF1(ZF2)-CRBN/DDB1 (Q96SW2 40-442 limits assumed): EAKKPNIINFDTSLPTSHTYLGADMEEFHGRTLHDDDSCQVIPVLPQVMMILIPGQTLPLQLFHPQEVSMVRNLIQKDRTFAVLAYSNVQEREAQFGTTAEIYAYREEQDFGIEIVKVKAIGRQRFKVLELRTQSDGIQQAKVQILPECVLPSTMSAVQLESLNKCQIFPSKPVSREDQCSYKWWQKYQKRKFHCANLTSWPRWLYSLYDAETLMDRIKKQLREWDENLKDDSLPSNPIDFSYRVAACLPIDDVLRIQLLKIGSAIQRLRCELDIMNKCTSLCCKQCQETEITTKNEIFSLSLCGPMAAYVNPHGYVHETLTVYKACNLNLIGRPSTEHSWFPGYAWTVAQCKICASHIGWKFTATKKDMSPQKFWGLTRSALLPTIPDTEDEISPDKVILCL
Sequence of IKZF1(ZF2)-CRBN/DDB1 (Q16531 whole entry partner): as the sequence (Q16531 whole entry partner) above
T1 sequence (Q96SW2 whole entry partner): as the sequence (Q96SW2 whole entry) above
T1 sequence (Q16531 whole entry partner): as the sequence (Q16531 whole entry partner) above
T1 sequence (Q13422 whole entry): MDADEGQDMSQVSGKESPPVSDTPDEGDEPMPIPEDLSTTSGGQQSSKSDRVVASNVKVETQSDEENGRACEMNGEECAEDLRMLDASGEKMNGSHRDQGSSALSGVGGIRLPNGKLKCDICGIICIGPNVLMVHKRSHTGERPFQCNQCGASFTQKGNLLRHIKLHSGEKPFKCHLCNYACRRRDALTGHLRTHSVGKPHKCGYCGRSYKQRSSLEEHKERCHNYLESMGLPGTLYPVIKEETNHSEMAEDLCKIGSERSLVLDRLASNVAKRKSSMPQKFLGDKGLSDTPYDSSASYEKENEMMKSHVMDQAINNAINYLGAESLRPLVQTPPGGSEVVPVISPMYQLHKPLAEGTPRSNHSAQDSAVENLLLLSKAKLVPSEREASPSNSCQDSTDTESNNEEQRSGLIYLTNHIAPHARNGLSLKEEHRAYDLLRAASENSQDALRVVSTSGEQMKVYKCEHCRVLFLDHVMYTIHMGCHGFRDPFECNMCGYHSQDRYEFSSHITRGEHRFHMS
Sequence of GSPT1(G575N) (Q96SW2 whole entry partner): as the sequence (Q96SW2 whole entry) above
Sequence of GSPT1(G575N) (Q16531 whole entry partner): as the sequence (Q16531 whole entry partner) above
Sequence of GSPT1(G575N) (P15170 1-637 isoform P15170-3 G575N): as the sequence (P15170 1-637 isoform P15170-3) above, with G575N counted along it
Sequence of GSPT1 (P15170 1-637 isoform P15170-3): as the sequence (P15170 1-637 isoform P15170-3) above
Sequence of GSPT1 (Q96SW2 whole entry): as the sequence (Q96SW2 whole entry) above
Sequence of GSPT1 (Q16531 whole entry partner): as the sequence (Q16531 whole entry partner) above

SMILES: O=C1CC[C@H](N2Cc3c(OCc4ccc(CN5CCOCC5)cc4)cccc3C2=O)C(=O)N1 [CC-220, reference compound]
- potency in cells relative to lenalidomide [1]: 10 fold
- IKZF1(ZF2)-CRBN/DDB1 complex formation, AlphaScreen signal (in words) [2]: strong dose response; also recorded: dose-dependent AlphaScreen signal

SMILES: Cc1ccc(NC(=O)NCc2ccc3c(c2)CN(C2CCC(=O)NC2=O)C3=O)cc1Cl (stereo not shown) [CC-885]
- antiproliferative effect across the five cell lines (in words) [3]: displayed antiproliferative effects in all five cell lines

- CLint scaled at 4 h, 10 µM [4]: 12 mL/min/kg
- IKZF1 protein levels in GSPT1(G575N) mutant cell line (in words) [7]: unaffected
- IKZF1 degradation after 4 h (in words) [7]: did not significantly degrade IKZF1
- CLint scaled at 4 h, 10 µM [12]: 4 mL/min/kg
- IKZF1 degradation after 4 h (in words) [13]: did not significantly degrade IKZF1
- degradation of GSPT1(G575N) mutant (in words) [14]: not degraded
SMILES: O=C1CCC(N2C(=O)c3ccc(NS(=O)(=O)c4ccccc4OC(F)(F)F)cc3C2=O)C(=O)N1 (stereo not shown) [compound 6, N-(2-(2,6-Dioxopiperidin-3-yl)-1,3-dioxoisoindolin-5-yl)-2-(trifluoromethoxy)benzenesulfonamide]
- antiproliferative effect across the five cell lines (in words) [3]: demonstrated antiproliferative activities across the panel
- antiproliferative effect in the presence of lenalidomide (in words) [5]: abrogating the antiproliferative effects
- antiproliferation effect in cells expressing GSPT1(G575N) (in words) [6]: completely abrogated
- timepoint at which caspase activation was observed [8]: 8 h
- abundance of CNTNAP4 and SERPINF1 (in words) [9]: less pronounced but statistically significant reductions
- abundance of IMiD neosubstrates IKZF1/3 and CK1α (in words) [9]: not affected
- proteins most reduced in abundance (in words) ([9]; 8927 quantified proteins): reduced most potently and selectively abundance of GSPT1 and GSPT2
- activity in cells (in words) [10]: most potent compound in the series
- antiproliferative activity in the absence of CRBN (in words) [11]: abolished
- IKZF1(ZF2)-CRBN/DDB1 complex formation, AlphaScreen signal (in words) [2]: neither 6 nor 7 showed a signal; also recorded: showed no effect even at the highest concentration
- EC50 [15]: 726 nM

- IKZF1 protein levels in GSPT1(G575N) mutant cell line (in words) [7]: unaffected
- IKZF1 degradation after 4 h (in words) [7]: did not significantly degrade IKZF1
- EC50 ([10]; MV4-11, 72 h, read-out: EC50 (nM) MV4-11): 52 nM
- EC50 ([10]; MV4-11, read-out: MV4-11 EC50 (μM)): 52 nM
- IKZF1 degradation after 4 h (in words) [13]: did not significantly degrade IKZF1
- degradation of GSPT1(G575N) mutant (in words) [14]: not degraded
SMILES: Cc1c(Cl)cccc1S(=O)(=O)Nc1ccc2c(c1)C(=O)N(C1CCC(=O)NC1=O)C2=O (stereo not shown) [compound 7, 3-Chloro-N-(2-(2,6-dioxopiperidin-3-yl)-1,3-dioxoisoindolin-5-yl)-2-methylbenzenesulfonamide]
- antiproliferative effect across the five cell lines (in words) [3]: demonstrated antiproliferative activities across the panel
- antiproliferative effect in the presence of lenalidomide (in words) [5]: abrogating the antiproliferative effects
- antiproliferation effect in cells expressing GSPT1(G575N) (in words) [6]: completely abrogated
- timepoint at which caspase activation was observed [8]: 24 h
- antiproliferative activity in the absence of CRBN (in words) [11]: abolished
- IKZF1(ZF2)-CRBN/DDB1 complex formation, AlphaScreen signal (in words) [2]: neither 6 nor 7 showed a signal; also recorded: showed no effect even at the highest concentration
- EC50 [15]: 5010 nM

SMILES: O=C1CCC(N2C(=O)c3ccc(NS(=O)(=O)c4ccccc4)cc3C2=O)C(=O)N1 (stereo not shown) [compound 8, N-(2-(2,6-Dioxopiperidin-3-yl)-1,3-dioxoisoindolin-5-yl)benzenesulfonamide]
- activity in cells (in words) [10]: inactive

SMILES: Cc1ccc(S(=O)(=O)Nc2ccc3c(c2)C(=O)N(C2CCC(=O)NC2=O)C3=O)cc1Cl (stereo not shown) [compound 9, 3-Chloro-N-(2-(2,6-dioxopiperidin-3-yl)-1,3-dioxoisoindolin-5-yl)-4-methylbenzenesulfonamide]
- activity in cells (in words) [10]: no effect in cellular assays

- effect on GSPT1 protein level (in words) [16]: no effects on the protein levels
- effect on IKZF1 protein level (in words) ([7]; immunoblot, MV4-11, 4 h): no effects on the protein levels
SMILES: O=C1CCC(N2C(=O)c3ccc(NS(=O)(=O)c4cccc(OC(F)(F)F)c4)cc3C2=O)C(=O)N1 (stereo not shown) [compound 10, N-(2-(2,6-Dioxopiperidin-3-yl)-1,3-dioxoisoindolin-5-yl)-3-(trifluoromethoxy)benzenesulfonamide]
- activity in cells (in words) [10]: no activity in cells

SMILES: O=C1CCC(N2C(=O)c3ccc(NS(=O)(=O)c4ccc(OC(F)(F)F)cc4)cc3C2=O)C(=O)N1 (stereo not shown) [compound 11, N-(2-(2,6-Dioxopiperidin-3-yl)-1,3-dioxoisoindolin-5-yl)-4-(trifluoromethoxy)benzenesulfonamide]
- activity in cells (in words) [10]: no activity in cells

SMILES: COc1ccccc1S(=O)(=O)Nc1ccc2c(c1)C(=O)N(C1CCC(=O)NC1=O)C2=O (stereo not shown) [compound 12, N-(2-(2,6-Dioxopiperidin-3-yl)-1,3-dioxoisoindolin-5-yl)-2-methoxybenzenesulfonamide]
- activity in cells (in words) [10]: inactive in cells

SMILES: Cc1ccccc1S(=O)(=O)Nc1ccc2c(c1)C(=O)N(C1CCC(=O)NC1=O)C2=O (stereo not shown) [compound 13, N-(2-(2,6-Dioxopiperidin-3-yl)-1,3-dioxoisoindolin-5-yl)-2-methylbenzenesulfonamide]
- activity in cells (in words) [10]: lack of potent cell activity

- GSPT1 degradation (in words) [17]: potent degrader of GSPT1
SMILES: O=C1CCC(N2C(=O)c3ccc(NS(=O)(=O)c4ccccc4C(F)(F)F)cc3C2=O)C(=O)N1 (stereo not shown) [compound 14, N-(2-(2,6-Dioxopiperidin-3-yl)-1,3-dioxoisoindolin-5-yl)-2-(trifluoromethyl)benzenesulfonamide]

SMILES: O=C1CCC(N2C(=O)c3ccc(NS(=O)(=O)c4cccc(Cl)c4)cc3C2=O)C(=O)N1 (stereo not shown) [compound 15, 3-Chloro-N-(2-(2,6-dioxopiperidin-3-yl)-1,3-dioxoisoindolin-5-yl)benzenesulfonamide]
- activity in cells (in words) [10]: lack of potent cell activity

SMILES: Nc1cccc2c1CN(C1CCC(=O)NC1=O)C2=O (stereo not shown) [lenalidomide]
- antiproliferative effect across the five cell lines (in words) [3]: insensitive

SMILES: Nc1cccc2c1C(=O)N(C1CCC(=O)NC1=O)C2=O (stereo not shown) [pomalidomide]
- antiproliferative effect across the five cell lines (in words) [3]: insensitive

SMILES: O=C1CCC(N2C(=O)c3ccccc3C2=O)C(=O)N1 (stereo not shown) [thalidomide]
- antiproliferative effect across the five cell lines (in words) [3]: insensitive
